# Data from patent US20230329245A1, “COMPOSITIONS AND METHODS OF USE THEREOF” (Curie Co. Inc., priority 2020, published 2023).
# Several values for one entry are separate records, joined by “and”; a condition that tells them apart may be missing. Identical values can stand only once. Like-named read-outs stand apart in the source and are kept apart here.
# B1: Tgase (SEQ ID NO: 1): wild-type Streptomyces mobaraensis transglutaminase, mature form, amino acid sequence SEQ ID NO:1 (protein, listed as Streptomyces mobaraensis)
# chain: DSDDRVTPPAEPLDRMPDPYRPSYGRAETVVNNYIRKWQQVYSHRDGRKQQMTEEQREWLSYGCVGVTWVNSGQYPTNRLAFASFDEDRFKNELKNGRPRSGETRAEFEGRVAKESFDEEKGFQRAREVASVMNRALENAHDESAYLDNLKKELANGNDALRNEDARSPFYSALRNTPSFKERNGGNHDPSRMKAVIYSKHFWSGQDRSSSADKRKYGDPDAFRPAPGTGLVDMSRDRNIPRSPTSPGEGFVNFDYGWFGAQTEADADKTVWTHGNHYHAPNGSLGAMHVYESKFRNWSEGYSDFDRGAYVITFIPKSWNTAPDKVKQGWP
# Tests used:
# Format in all cases: cell-based
# E. coli ATCC 8739 [1] = assay: Growth inhibition of E. coli culture in LB (OD600 / BacTiter-Glo); settings: for growth inhibition / growth inhibition in the presence of 400 μg/mL Tgase SEQ ID NO: 6 / inhibition at 500 µg/mL / inhibition at 3000 µg/mL: E. coli ATCC 8739; for inhibition at 500 µg/mL / inhibition at 3000 µg/mL: Escherichia coli, ATCC8739
# Description: (§1) For MIC determination of bacterial cultures, E. coli ATCC 8739, DH5-alpha, DH10-beta, and B. subtilis BGSC 1A1276 was grown overnight (16-18 hours) in LB broth at 37° C. The following day, the cell density of the saturated cultures was calculated using OD600 and cultures were diluted to 10^4 to 10^6 CFU/mL in sterile LB media to generate the inoculum, and 90 μL of the inoculum was combined with 10 μL of serially diluted Tgase SEQ ID NO:1 at a range of 0.0001-0.01 weight percent in the presence or absence of 0.003% lysozyme (100-fold lower than the effective concentration). Growth curves were measured by OD600 on a BioTek® Synergy Plate Reader. Optionally, the following day, a cell viability assay such as BacTiter-Glo™ (Promega®) following manufacturer's protocols) could be used to assess cell viability. A decrease in OD600 or luminescence indicated a decrease in cell viability. Results are presented as a percent reduction in cell count relative to an untreated culture. All test conditions were performed in triplicate.
# E. coli ATCC 8739 was grown overnight in LB broth at 37° C. The following day, the cell density of the saturated cultures was calculated using OD600 and cultures were diluted to 10^4 to 10^6 CFU/mL in sterile LB media to generate the inoculum, and 90 μL of the inoculum was combined with 10 μL of serially diluted Tgase SEQ ID NO:6 at a range of 0.001-0.1 weight percent in the presence or absence of chemical preservatives at concentrations above and below the calculated MIC value. A single concentration (at the MIC) of the chemical preservative and static concentrations of Tgase SEQ ID NO:6 (400 μg/mL, 0.04% w/v) are presented in Table 8 as representative examples. Growth curves were measured by OD600 on a BioTek® Synergy Plate Reader and a cell viability assay (BacTiter-Glo™, Promega®, following manufacturer's protocols) was used to assess cell viability. A decrease in OD600 or luminescence indicated a decrease in cell viability. Results are presented as a percent reduction in cell count relative to an untreated culture. […]
# C. albicans ATCC 10231 [2] = assay: MIC determination, C. albicans; settings: RPMI 1640 pH 7.0, 37° C., 24 to 48 hours, duplicate
# Description: (§2) A variant form of Streptomyces mobaraensis transglutaminase having the amino acid sequence depicted in SEQ ID NO:6 was prepared by literature methods with a hexa-his-tag to aid in purification (Javitt, et al. (2017) BMC Biotechnol. 17:23). The cells were grown in shake flasks, lysed by homogenization, and the Tgase variant (SEQ ID NO:6) was isolated from the cell debris by centrifugation. The resulting semi-purified enzyme (clarified lysate) were compared on an SDS-PAGE gel, by spectroscopy, and activity for concentration of active enzyme. The Tgase variant (SEQ ID NO:6) was further purified by affinity column on a Ni-IMAC resin prior to MIC assay. Tgase activity was measured in the examples herein using a colorimetric hydroxamate activity assay (Folk and Cole (1965) J Biol Chemistry 240(7):2951-2960). The enzyme was diluted to a working stock concentration of 2 mg/mL in CAMHB or RPMI media (bacterial or fungal media). This was then 2-fold serial diluted ten times in the appropriate media in a 96-well master plate to generate 2× starting concentrations for MIC testing. […]
# (§3) C. albicans MIC 96-well plate was incubated for 37° C. for 24 to 48 hours. […] After incubation, all 96-well plates were examined visually and on a spectrophotometer at absorbance OD650. […]
# E. coli ATCC 8739 [3] = assay: MIC determination, E. coli
# Description: (§4) A variant form of Streptomyces mobaraensis transglutaminase having the amino acid sequence depicted in SEQ ID NO:6 was prepared by literature methods with a hexa-his-tag to aid in purification (Javitt, et al. (2017) BMC Biotechnol. 17:23). The cells were grown in shake flasks, lysed by homogenization, and the Tgase variant (SEQ ID NO:6) was isolated from the cell debris by centrifugation. The resulting semi-purified enzyme (clarified lysate) were compared on an SDS-PAGE gel, by spectroscopy, and activity for concentration of active enzyme. The Tgase variant (SEQ ID NO:6) was further purified by affinity column on a Ni-IMAC resin prior to MIC assay. Tgase activity was measured in the examples herein using a colorimetric hydroxamate activity assay (Folk and Cole (1965) J Biol Chemistry 240(7):2951-2960). The enzyme was diluted to a working stock concentration of 2 mg/mL in CAMHB or RPMI media (bacterial or fungal media). This was then 2-fold serial diluted ten times in the appropriate media in a 96-well master plate to generate 2× starting concentrations for MIC testing.
# (§5) Strains were acquired from the American Type Culture Collection (ATCC) (Manassas, VA) and maintained as −80° C. frozen glycerol stocks: S. aureus ATCC 6538, E. coli ATCC 8739, P. aeruginosa ATCC 9027, C. albicans ATCC 10231, and A. brasiliensis ATCC 16404. B. subtilis BGSC 1A1276 was purchased from the Bacillus Genetic Stock Center (BGSC) (Columbus, OH) and maintained as −80° C. frozen glycerol stock. Cation-adjusted Mueller-Hinton broth (CAMHB) at pH 7.3 was used for testing with bacterial species (unless otherwise noted), while RPMI 1640 media buffered with 0.165 M MOPS at pH 7.0 was used for testing with all fungal species.
# For MIC determination, bacterial strains (S. aureus ATCC 6538, E. coli ATCC 8739, P. aeruginosa ATCC 9027) were grown overnight on Tryptic Soy Agar (TSA) plates at 37° C. A few colonies of each strain were collected with a sterile swab and used to make a McFarland 0.5 standard solution (approximately 1×10^8 CFU/mL) in sterile PBS. The McFarland solution was then diluted 1:100 in CAMHB to generate the inoculum, and 50 μL of this inoculum was combined with 50 μL of the 2× test article in a 96-well plate for a final concentration of 1×. All test conditions were performed in duplicate. The bacterial-strain MIC 96-well plates were incubated at 37° C. for 18 to 20 hours. MIC is defined as the lowest concentration of a compound in which no visible growth is observed.
# P. aeruginosa ATCC 9027 = assay: MIC determination, P. aeruginosa; settings: CAMHB pH 7.3, 37° C., 18 to 20 hours, duplicate
# Description: as §4, §5
# For MIC determination, bacterial strains (S. aureus ATCC 6538, E. coli ATCC 8739, P. aeruginosa ATCC 9027) were grown overnight on Tryptic Soy Agar (TSA) plates at 37° C. A few colonies of each strain were collected with a sterile swab and used to make a McFarland 0.5 standard solution (approximately 1×10^8 CFU/mL) in sterile PBS. […]
# S. aureus ATCC 6538 = assay: MIC determination, S. aureus; settings: CAMHB pH 7.3, 37° C., 18 to 20 hours, duplicate
# Description: as §4
# Strains were acquired from the American Type Culture Collection (ATCC) (Manassas, VA) and maintained as −80° C. frozen glycerol stocks: S. aureus ATCC 6538, E. coli ATCC 8739, P. aeruginosa ATCC 9027, C. albicans ATCC 10231, and A. brasiliensis ATCC 16404. […]
# [4] = tested on: A. brasiliensis ATCC 16404; assay: MIC determination, A. brasiliensis; settings: RPMI 1640 pH 7.0, 25° C., up to 7 days, duplicate
# Description: as §2, §3
# B. subtilis BGSC 1A1276 = assay: Growth reduction of B. subtilis culture (OD600 / BacTiter-Glo)
# Description: as §1
# (§6) Yeast or bacterial starter cultures were grown as described previously. Tgase (SEQ ID NO:6) was added to each culture at 0.001-1 weight percent. The cultures were grown overnight at 30° C.-37° C. and growth curves were measured by a BioTek® Synergy Plate Reader.
# C. albicans ATCC 10231 [5] = assay: Growth reduction of C. albicans culture (OD600 / BacTiter-Glo)
# Description: For MIC determination of yeast cultures, C. albicans ATCC 10231 was grown overnight (24 hours) in YPD media at 30° C. The following day, the cell density of the saturated cultures was calculated using OD600 and cultures were diluted to 10^4 to 10^6 CFU/mL in sterile YPD media to generate the inoculum, and 90 μL of the inoculum was combined with 10 μL of serially diluted Tgase SEQ ID NO:1 at a range of 0.0001-0.01 weight percent. The cultures were grown overnight at 30° C. and growth curves were measured by OD600 on a BioTek® Synergy Plate Reader. Optionally, the following day, a cell viability assay such as BacTiter-Glo™ (Promega®) following manufacturer's protocols) could be used to assess cell viability. A decrease in OD600 or luminescence indicated a decrease in cell viability. Results are presented as a percent reduction in cell count relative to an untreated culture. All test conditions were performed in triplicate.
# as §6
# [6] = CAMHB pH 7.3, 37° C., 18 to 20 hours, duplicate
# [7] = Escherichia coli, ATCC8739, read-out: Concentration (MIC values; single concentration at the MIC of the chemical preservative)
molecule,measurement,setting,value
Benzalkonium chloride,growth inhibition,E. coli ATCC 8739 [1]; 16 μg/mL,99.7%
same,growth inhibition in the presence of 400 μg/mL Tgase SEQ ID NO: 6,E. coli ATCC 8739 [1]; 16 μg/mL preservative + 400 μg/mL Tgase SEQ ID NO: 6,99.94%
same,MIC,C. albicans ATCC 10231 [2],3.91 µg/mL
same,Concentration (MIC values; single concentration at the MIC of the chemical preservative),E. coli ATCC 8739 [3],16 µg/mL
same,MIC,E. coli ATCC 8739 [3]; [6],15.63 µg/mL
same,MIC,P. aeruginosa ATCC 9027,62.5 µg/mL and 31.25 µg/mL
"CCCCCCC(O)CO (centres unmarked) [1,2-octandiol]",inhibition at 500 µg/mL,"E. coli ATCC 8739 [1]; 500 μg/mL preservative + 400 μg/mL Tgase SEQ ID NO: 6, read-out: growth inhibition in the presence of 400 μg/mL Tgase SEQ ID NO: 6",99.3%
same,inhibition at 500 µg/mL,"E. coli ATCC 8739 [1]; 500 μg/mL, read-out: growth inhibition",97.8%
same,MIC,E. coli ATCC 8739 [3]; [7],500 µg/mL
"Cn1sccc1=O [MIT, Methylisothiazolinone]",growth inhibition,E. coli ATCC 8739 [1]; 150 μg/mL,98.7%
same,growth inhibition in the presence of 400 μg/mL Tgase SEQ ID NO: 6,E. coli ATCC 8739 [1]; 150 μg/mL preservative + 400 μg/mL Tgase SEQ ID NO: 6,99.8%
same,Concentration (MIC values; single concentration at the MIC of the chemical preservative),E. coli ATCC 8739 [3],150 µg/mL
"CCCCC(O)CO (centres unmarked) [1,2-hexandiol]",inhibition at 3000 µg/mL,"E. coli ATCC 8739 [1]; 3,000 μg/mL preservative + 400 μg/mL Tgase SEQ ID NO: 6, read-out: growth inhibition in the presence of 400 μg/mL Tgase SEQ ID NO: 6",99.5%
same,inhibition at 3000 µg/mL,"E. coli ATCC 8739 [1]; 3,000 μg/mL, read-out: growth inhibition",97.9%
same,MIC,E. coli ATCC 8739 [3]; [7],3000 µg/mL
"O=C([O-])c1ccccc1.[Na+] [Sodium benzoate, sodium benzoate]",MIC,S. aureus ATCC 6538,"10,000 μg/mL"
same,growth inhibition,"E. coli ATCC 8739 [1]; 10,000 μg/mL",99.85%
same,growth inhibition in the presence of 400 μg/mL Tgase SEQ ID NO: 6,"E. coli ATCC 8739 [1]; 10,000 μg/mL preservative + 400 μg/mL Tgase SEQ ID NO: 6",99.97%
same,MIC,C. albicans ATCC 10231 [2],">20,000 μg/mL"
same,Concentration (MIC values; single concentration at the MIC of the chemical preservative),E. coli ATCC 8739 [3],"10,000 μg/mL"
same,MIC,E. coli ATCC 8739 [3]; [6],"10,000 μg/mL"
same,MIC,[4],"2,500 μg/mL and 1,250 μg/mL"
same,MIC,P. aeruginosa ATCC 9027,"10,000 μg/mL"
B1,growth inhibition,E. coli ATCC 8739 [1]; 960 μg/mL,0.0%
same,antimicrobial activity,"E. coli ATCC 8739 [1]; gram negative E. coli ATCC 8739, DH5-alpha and DH10-beta, under the concentrations evaluated",little or no detectable antimicrobial activity
same,Fold improvement in enzyme efficacy,B. subtilis BGSC 1A1276; Tgase (SEQ ID NO: 1) alone = 1,1
same,growth inhibition (in words),B. subtilis BGSC 1A1276; Tgase alone,partially inhibited
same,Percent Growth Reduction,B. subtilis BGSC 1A1276; enzyme concentration 960 ug/mL,99.17%
same,growth inhibition (in words),"B. subtilis BGSC 1A1276; upon adding a cell membrane disruptor, lysozyme",Full inhibition
same,Fold improvement in enzyme efficacy,"C. albicans ATCC 10231 [5]; C. albicans ATCC 10231, Tgase (SEQ ID NO: 1) = 1",1
same,Percent Growth Reduction,"C. albicans ATCC 10231 [5]; C. albicans ATCC 10231, enzyme concentration 800 ug/mL",83.11%
same,growth inhibition (in words),"C. albicans ATCC 10231 [5]; C. albicans, Tgase alone",partially inhibited
